Tests used:
[1] = target: GST-MEK (p45MEK) / GST-MAPK (p44MAP kinase) (Homo sapiens, UniProt Q02750); experiment: APK IC50; cascade assay for inhibitors of the MAP kinase pathway; assay type: biochemical
Protocol: According to one aspect of the invention, the compounds are MEK inhibitors. MEK inhibition assays include the cascade assay for inhibitors of MAP kinase pathway described at column 6, line 36 to column 7, line 4 of U.S. Pat. No. 5,525,625 and the in vitro MEK assay at column 7, lines 4-27 of the same patent, the entire disclosure of which is incorporated by reference (see also Examples 5-10 below).
Incorporation of ^32P into myelin basic protein (MBP) is assayed in the presence of a glutathione S-transferase fusion protein containing p44MAP kinase (GST-MAPK) and a glutathione S-transferase fusion protein containing p45MEK (GST-MEK). The assay solution contains 20 mM HEPES, pH 7.4, 10 mM MgCl2, 1 mM MnCl2, 1 mM EGTA, 50,μM [γ-^32P]ATP, 10 μg GST-MEK, 0.5 μg GST-MAPK and 40 μg MBP in a final volume of 100 μL. Reactions are stopped after 20 minutes by addition of trichloroacetic acid and filtered through a GF/C filter mat. ^32P retained on the filter mat is determined using a 120S Betaplate. Compounds are assessed at 10 μM for ability to inhibit incorporation of ^32P.
To ascertain whether compounds are inhibiting GST-MEK or GST MAPK, two additional protocols are employed. In the first protocol, compounds are added to tubes containing GST-MEK, followed by addition of GST-MAPK, MBP and [β-^32P]ATP. In the second protocol, compounds are added to tubes containing both GST-MEK and GST-MAPK, followed by MBP and [β-^32P]ATP.
Compounds that show activity in both protocols are scored as MAPK inhibitors, while compounds showing activity in only the first protocol are scored as MEK inhibitors.

[2] = system: C26 Cells; experiment: C26 Cells; assay type: cell-based

Chain of GST-MEK (p45MEK) / GST-MAPK (p44MAP kinase) (Q02750 whole entry): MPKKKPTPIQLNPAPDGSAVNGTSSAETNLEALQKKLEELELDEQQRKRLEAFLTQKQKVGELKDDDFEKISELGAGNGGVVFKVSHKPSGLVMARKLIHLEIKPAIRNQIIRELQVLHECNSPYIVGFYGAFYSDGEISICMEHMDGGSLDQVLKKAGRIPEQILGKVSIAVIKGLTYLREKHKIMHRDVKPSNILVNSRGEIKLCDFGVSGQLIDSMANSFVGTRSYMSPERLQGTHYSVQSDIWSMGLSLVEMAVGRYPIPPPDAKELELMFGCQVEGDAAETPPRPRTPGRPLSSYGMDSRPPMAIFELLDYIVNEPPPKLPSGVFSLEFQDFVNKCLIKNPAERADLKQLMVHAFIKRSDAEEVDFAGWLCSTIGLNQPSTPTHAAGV

SMILES	IC50 [1]	melting point	IC50 [2]
COC(=O)c1cc(S(=O)(=O)N(C)C)c(F)c(F)c1Nc1ccc(I)cc1Cl [PD 193846, 2-(2-Chloro-4-iodo-phenlylamino)-5-dimethylsulfamoyl-3,4-difluoro-benzoic acid methyl ester]	222 nM	–	–
NS(=O)(=O)c1cc(C(=O)O)c(Nc2ccc(I)cc2Cl)c(F)c1F [PD 215730, 2-(2-Chloro-4-iodo-phenylamino)-3,4-difluoro-5-sulfamoyl-benzoic acid]	781 nM	295 to 296 °C (dec.)	–
COc1ccc(CN(Cc2ccc(OC)cc2)S(=O)(=O)c2cc(C(=O)NOCC3CC3)c(Nc3ccc(I)cc3Cl)c(F)c2F)cc1 [PD 218774, 5-[Bis-(4-methoxy-benzyl)-sulfamoyl]-2-(2-chloro-4-iodo-phenylamino)-N-cyclopropylmethoxy-3,4-difluoro-benzamide]	> 3000 nM	–	–
NS(=O)(=O)c1cc(C(=O)NOCC2CC2)c(Nc2ccc(I)cc2Cl)c(F)c1F [PD 219622, 2-(2-Chloro-4-iodo-phenylamino)-N-cyclopropylmethoxy-3,4-difluoro-5-sulfamoyl-benzamide]	186 nM	219 to 227 °C (dec.)	1600 nM
CN(Cc1cccnc1)S(=O)(=O)c1cc(C(=O)O)c(Nc2ccc(I)cc2Cl)c(F)c1F [PD 219795, 2-(2-Chloro-4-iodo-phenylamino)-3,4-difluoro-5-(methyl-pyridin-3-ylmethyl-sulfamoyl)-benzoic acid]	> 3000 nM	–	–
NS(=O)(=O)c1cc(C(=O)NO)c(Nc2ccc(I)cc2Cl)c(F)c1F [PD 224213, 2-(2-Chloro-4-iodo-phenylamino)-3,4-difluoro-N-hydroxy-5-sulfamoyl-benzamide]	122 nM	230 to 236 °C (dec.)	9100 nM
CN(C)S(=O)(=O)c1cc(C(=O)O)c(Nc2ccc(I)cc2Cl)c(F)c1F [PD 224339, 2-(2-Chloro-4-iodo-phenylamino)-5-dimethylsulfamoyl-3,4-difluoro-benzoic acid]	283 nM	–	> 10000 nM
Cc1cc(I)ccc1Nc1c(C(=O)O)cc(S(=O)(=O)N(C)C)c(F)c1F [PD 224340, 5-Dimethylsulfamoyl-3,4-difluoro-2-(4-iodo-2-methyl-phenylamino)-benzoic acid]	441 nM	–	> 10000 nM
CN(C)S(=O)(=O)c1cc(C(=O)NOCC2CC2)c(Nc2ccc(I)cc2Cl)c(F)c1F [PD 250253, 2-(2-Chloro-4-iodo-phenylamino)-N-cyclopropylmethoxy-5-dimethylsulfamoyl-3,4-difluoro-benzamide]	936 nM	222 to 225 °C (dec.)	–
Cc1cc(I)ccc1Nc1c(C(=O)NOCC2CC2)cc(S(=O)(=O)N(C)C)c(F)c1F [PD 252745, N-Cyclopropylmethoxy-5-dimethylsulfamoyl-3,4-difluoro-2-(4-iodo-2-methyl-phenylamino)-benzamide]	3700 nM	171 to 172 °C	–

From patent US6750217B2, “Benzenesulfonamide derivatives and their use as MEK inhibitors” (Warner-Lambert Company, priority 1999, dated 2004)
